Here are results for 3 molecules from PMC11239005, “Preclinical studies of RA475, a guanidine-substituted spirocyclic candidate RPN13/ADRM1 inhibitor for treatment of ovarian cancer” (PLOS ONE, 2024).

SMILES strings stand for the structures.

The test system of data set [1] is high molecular weight polyubiquitinated proteins in SKOV3 cells. Briefly: Anti-ubiquitin immunoblot, SKOV3. The note with it: Up284 and RA475 0.5 and 1 μM, RA190 1 μM. The class given is cell-based. An excerpt: (§1) Cell lysate prepared in MPER (Pierce) from each sample was normalized by total protein concentration using the bicinchoninic acid assay and bovine serum albumin standards. Normalized samples were subjected to SDS-PAGE, transferred to PVDF membranes and analyzed by Western blot using antibodies specific to ubiquitin (P4D1, sc-8017, Santa Cruz), PARP (#9542, […]), actin (#66009, Protein Tech Group), Tubulin(#66031, Protein Tech Group), ADRM1/RPN13 (D9Z1U, #12019, Cell Signaling), USP14 (Cell Signal, # 8159), Annexin V (#559763, BD Pharmingen), and for secondary antibodies we utilized either horseradish peroxidase (HRP)-linked anti-mouse IgG or anti-rabbit IgG (GE Healthcare UK Ltd), HRP-linked streptavidin (N100, Thermo Fisher) at the recommended dilution (1:5000).
(§2) Accumulation of high molecular weight polyubiquitinated proteins (polyUb) is a classical phenomenon of proteasome function inhibition due to the stabilization of its substrate.
Fig 3 Impact of RA475 on proteasome function. […] Actin was used as loading control. […] C) 4T1 and HCC1806 cells stably expressing 4UbFL were treated with compounds at indicated doses for 4 h and imaged by IVIS200 after the addition of luciferin substrate (50 μL, 7mg/mL in PBS). […] After a 4 h incubation, the cells were lysed and the luciferase activity in each cell lysate was determined with a luciferase assay kit (Promega) according to the manufacturer’s instructions. Bioluminescence was measured by using a luminometer (Glomax Multidetection system, Promega) E) A patch was shaved of hair on one leg of CD-1 mice, and 10 μg 4UbFL plasmid in 20 μL of PBS was injected into the quadriceps femoralis muscle followed immediately by injection of the 2 Needle Array to 5 mm depth encompassing the injection site and square wave electroporation (ElectroSquarePorator 833, BTX-2 Needle array 5mm gap, Harvard apparatus) delivered as eight pulses at 106V for 20 ms with 200 ms intervals. […] Equally sized areas were analyzed using Living Image 2.20 software. […]
(Immunoblotting shows a protein as a band on a membrane.)

For data set [2] the following is noted: human and mouse microsomes; cited from earlier work.
For data set [3] the following is noted: cited from earlier work.
Another data set concerns the target T1, RPN13 (Homo sapiens, UniProt Q16186).
T1 construct: performed the labeling assay after treating ovarian cancer cell lysates (ES2 and SKOV3) in the presence of titrated doses of RA475; endogenous in cells; host or cells: ES2 and SKOV3 ovarian cancer cell lysates
Briefly: Up284B competition labelling in ES2 and SKOV3 cell lysate. Format: binding. The note with it: titrated RA475, bortezomib 1 μM, Up284B 5 μM. How it is done: Clarified cell lysate in MPER buffer (Pierce) was pretreated with streptavidin-coated magnetic beads for 45 min at 4°C to deplete non-specific biotinylated proteins in the cell lysate. […] Next, the samples were mixed with Laemmli sample buffer (BioRad) and boiled for 5 min. The proteins were separated using a 4–15% Bio-Rad Mini-PROTEAN SDS-PAGE gel (1 h at 100 V), and transferred to PVDF membrane overnight at 4°C (24 V). The membrane was blocked with 5% (w/v) BSA in phosphate buffered saline containing 0.1% (v/v) Tween 20 (PBST) for 1 h at RT, and washed for 20 min (3X with PBST). Then the membrane was probed with HRP-streptavidin (1:10,000 in PBST) for 1 h at RT, washed for 30 min (3X with PBST), and developed using HyGLO chemiluminescent detection reagent (Denville) and visualized using a Biorad Chemidoc imager.
Fig 2 RA475 binds to RPN13 and induces rapid apoptosis. […] C, D) RA475 competition labelling experiment. C) ES2 D) SKOV3 clarified cell lysate (40 μg/sample) in MPER buffer was pretreated with streptavidin-coated magnetic beads for 45 min at 4°C to deplete non-specific biotinylated proteins in the cell lysate. […] Next, the samples were mixed with Laemmli sample buffer (BioRad) and boiled for 5 min. The proteins were separated using a 4–15% Bio-Rad Mini-PROTEAN SDS-PAGE gel (1 h at 100 V), and transferred to PVDF membrane overnight at 4°C (24 V). […]

The subject of data set [4] is high molecular weight polyubiquitinated proteins in OVCAR3 cells. Briefly: Anti-ubiquitin immunoblot, OVCAR3. Format: cell-based, human. The note with it: Up284 0.5 μM, bortezomib 0.25 μM, ixazomib 0.25 μM, RA475 0.5 or 1 μM.
Source text: as §1, §2
Fig 3 Impact of RA475 on proteasome function. […] Actin was used as loading control. […] C) 4T1 and HCC1806 cells stably expressing 4UbFL were treated with compounds at indicated doses for 4 h and imaged by IVIS200 after the addition of luciferin substrate (50 μL, 7mg/mL in PBS). D) Sub-confluent cultures of ES2 cells stably expressing 4UbFL were seeded at 10,000 cells/well in 96-well microtiter plates. At 18 h post transfection, cells were treated with compounds or vehicle (DMSO) at the doses indicated. After a 4 h incubation, the cells were lysed and the luciferase activity in each cell lysate was determined with a luciferase assay kit (Promega) according to the manufacturer’s instructions. Bioluminescence was measured by using a luminometer (Glomax Multidetection system, Promega) E) A patch was shaved of hair on one leg of CD-1 mice, and 10 μg 4UbFL plasmid in 20 μL of PBS was injected into the quadriceps femoralis muscle followed immediately by injection of the 2 Needle Array to 5 mm depth encompassing the injection site and square wave electroporation (ElectroSquarePorator 833, BTX-2 Needle array 5mm gap, Harvard apparatus) delivered as eight pulses at 106V for 20 ms with 200 ms intervals. One day post electroporation, mice were anesthetized with isoflurane, injected IP with luciferin (0.3 mg in 100 μL water) and optical imaging was performed to determine basal level luciferase expression. Images were acquired for 10 min with a Xenogen IVIS 200 (Caliper, Hopkinton, MA). Equally sized areas were analyzed using Living Image 2.20 software. Mice were imaged weekly during treatment. […]

In another data set the test system is MDA-MB-468 cells. The data set is described as follows: Surface Annexin V display by flow cytometry, MDA-MB-468. Format: cell-based. The note with it: MDA-MB-468, 12 h; RA475 1 or 2 μM, ixazomib 1 μM. How it is done: The percentage of cells initiating apoptosis was assessed with the annexin V FITC assay kit. The cells (2 × 10^5 cells/well) were treated with the described compounds at selected concentrations for 12 h or 16 h, as indicated. The cells were then collected, washed with PBS, resuspended in 100 μL of annexin V-FITC and 7-AAD dual-stain solution (3 μL Annexin V and 3 μL 7AAD, Catalog Number; 559763-BD bioscience), and incubated 20 min in the dark. The samples were then analyzed via flow cytometry using FlowJo V10 software. All experiments were repeated three times.
Supplementary file pone.0305710.s006.tif: S6 Fig RA475 induced apoptosis in a triple negative breast cancer cell line. […] (TIF)
A general note: In flow cytometry, cells or beads pass a laser one at a time.

T1 sequence (Q16186 whole entry): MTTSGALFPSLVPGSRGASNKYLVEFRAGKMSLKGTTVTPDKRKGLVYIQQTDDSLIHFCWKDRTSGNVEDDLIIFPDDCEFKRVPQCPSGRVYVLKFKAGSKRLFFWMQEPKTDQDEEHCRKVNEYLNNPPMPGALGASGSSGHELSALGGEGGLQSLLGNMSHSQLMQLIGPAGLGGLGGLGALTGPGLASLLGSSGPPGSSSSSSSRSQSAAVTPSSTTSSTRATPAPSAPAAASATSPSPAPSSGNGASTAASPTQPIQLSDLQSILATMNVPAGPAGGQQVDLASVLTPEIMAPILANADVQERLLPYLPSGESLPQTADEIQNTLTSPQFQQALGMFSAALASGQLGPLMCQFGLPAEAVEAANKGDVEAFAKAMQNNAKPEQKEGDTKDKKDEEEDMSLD

As for `Cl.N[C@@H](Cc1ccccc1)C(=O)N1C/C(=C/c2ccc(Cl)c(Cl)c2)C(=O)/C(=C\c2ccc(Cl)c(Cl)c2)C1` [RA190], the “accumulation of high molecular weight polyubiquitinated proteins” value in data set [1] was “robust accumulation of polyUb”. The “breakdown in microsomes compared with RA475” value in data set [2] is reported as “more rapidly broken down”.
`CC(C)C[C@H](NC(=O)[C@H](Cc1ccccc1)NC(=O)c1cnccn1)B(O)O` [bortezomib]: the “concentration in human cerebrospinal fluid and murine brain tissue, % of serum concentrations” value in data set [3] is listed as 5–7%. On RPN13, the “competition with Up284B for binding to RPN13” value is “no impact”. In addition, in data set [4], the “forms of polyUb induced” value was “only induced the smaller poly Ub forms, typically <250kDa”.
As to `CC(C)C[C@H](NC(=O)CNC(=O)c1cc(Cl)ccc1Cl)B(O)O` [ixazomib], the “apoptosis by surface Annexin V display” value in the data set on MDA-MB-468 cells is “initiated apoptosis”. Also, the “access to the brain” value in data set [3] was “mostly excluded from the brain”. Further, in data set [4], the “forms of polyUb induced” value is on record as “only induced the smaller poly Ub forms, typically <250kDa”.
